Data reported in patent US20050215478A1, “Amino acid sequences capable of facilitating penetration across a biological barrier” (priority 2002, published 2005).
No end group written: not given here.

Assay: Translocation of ^125I-labeled peptide from mouse intestine loop into blood and organs (Example 1)
Assay type: in vivo, BALB/c mice
Settings: similar experiments; injected into a mouse intestinal loop; fraction of the full conjugate IBW-002
Excerpt: The tested peptide, representing a penetrating peptide and a radio-labeled probe in a contiguous construct of SEQ ID NO 3 and SEQ ID NO 17, hereby named IBW 002 (Novetide, lot 40139-45, sequence: Ac-NYYDITLALAGICQSARLVQQLAGGGKGGK-NH2 (SEQ ID NO:22), was ^125I-labeled using the Bolton Hunter Reagent (Biochem. J. 133:529-39 (1973)). The labeled peptide was loaded on a Sephadex G10 column, washed with phosphate buffer and eluted with 3M Tiocyanate in DDW+50% n-butanol. The peak, containing 6 fractions, was kept and used for in vivo experiments.
Four male BALB/c mice, 9-10 weeks old, were deprived of food, 18 hours prior to the experiment.
The mice were anesthetized by i.p. injection of 0.05 ml of a mixture of 0.15 ml xylazine+0.85 ml of ketamin. A 2 cm long incision was made along the center of the abdomen, through the skin and abdominal wall. An intestine loop was gently pulled out through the incision and placed on wet gauze beside the animal. The loop remained intact through the entire procedure and was kept wet during the whole time. The tested compound was injected into the loop, 0.2 ml/ mouse, containing around 200,000 cpm, using a 26G needle. Fifteen minutes post injection the tip of the tail was cut and a 50 μl blood sample was drawn into a glass capillary. This was repeated 30 and 60 minutes post injection. The animals were subsequently sacrificed. The following organs were removed: epididymal fat, kidneys, liver, lungs and brain. Radioactivity in each organ and in blood samples was counted. A 5 μl sample of the injected solution was counted to determine the total injected cpm per mouse.
The total radioactive labeling injected per mouse was 224,160 cpm. Total cpm in the blood was calculated based on the 50 μl blood sample drawn out at different time points post injection, in the assumption that total blood volume of each mouse is 2 ml.

Substance | average amount recovered from the blood and various organs, relative to that obtained with IBW-002
GGKGGK (also: 125I label, site not given here) [SEQ ID NO:17, reference compound] | about ⅕

Assay: Relative potency of penetrating peptides as tested in mice (Example 3)
Assay type: in vivo
Settings: IBW-002 = 100
Excerpt: Relative Potency of Penetrating Peptides as Tested in Mice.

Substance | Relative potency (%)
AcNYHDIVLALAGVCQSARLVHQLAGGKGGKNH2 [IBW-006] | 77%
AcNLPPIVLAVIGICAAVFLLQQYVGGGKGGKNH2 (Ac-NLPPIVLAVIGICAAVFLLQQYVGGGKGGK-NH2) [IBW-003] | 37%
AcMRNLTRTSLLLAGLCTAAQMVFVGGGKGGKNh2 (Ac-MRNLTRTSLLLAGLCTAAQMVFVGGGKGGK-NH2) [IBW-005] | 51%
AcMYYDITLALAGICQSARLVQQLAGGGKGGKNH2 (Ac-MYYDITLALAGICQSARLVQQLAGGGKGGK-NH2) [IBW-002V2] | 80%
AcMYDITLALAGICQSARIVQQLAGGKGGKNH2 [IBW-002V3] | 77%
AcMNYYDITLALAGICQSARLVQQLAGGGKGGKNH2 (Ac-MNYYDITLALAGICQSARLVQQLAGGGKGGK-NH2) [IBW-002V1] | 73%
AcNYFLVNLAFAEASMAAFNTVVNFGGKGGKNH2 (Ac-NYFLVNLAFAEASMAAFNTVVNFGGKGGK-NH2) [IBW-007] | 66%
AcNYFIVNLALADLCMAAFNAAFNFGGGKGGKNH2 (Ac-NYFIVNLALADLCMAAFNAAFNFGGGKGGK-NH2) [IBW-004] | 63%
